Source: patent publication US20080287472A1 (priority 2002, published 2008)

Key:
[1] = test system: Pyricularia oryzae (rice blast); type: in vivo; settings: 200 ppm, rice leaf segments, sprayed before inoculation, assessed four days after inoculation
[2] = test system: Erysiphe graminis f.sp. hordei (barley powdery mildew); settings: in vivo
[3] = test system: Erysiphe graminis f.sp. tritici (wheat powdery mildew); settings: in vivo

SMILES	melting point	control of disease [1]	control of disease [2]	control of disease [3]
CCC(C)Nc1nc2ncncc2c(Cl)c1-c1c(F)cc(F)cc1F (stereo not shown)	179 °C	–	–	–
CC(C)Nc1c(-c2c(F)cc(F)cc2F)c(Cl)nc2cncnc12 [Compound 3 (1), [6-chloro-7-(2,4,6-trifluorophenyl)-pyrido[3,2-d]pyrimidin-8-yl]-isopropylamine]	–	greater than 60%	greater than 60%	greater than 60%
